# Source: patent publication US20230256004A1, “COMPOSITIONS AND METHODS FOR TREATING MOOD DISORDERS AND CIRCADIAN RHYTHM SLEEP DISORDERS” (Light Aqua LLC, priority 2020, published 2023)
# Key:
# [1] = test system: Major Depressive Disorder; assay: proposed treatment of Major Depressive Disorder with deuterium oxide/scopolamine solution; type: in vivo, human; conditions: Major Depressive Disorder subjects; proposed experiment
# humans [2] = conditions: acute treatment; 1% of total body water versus 15% toxic
# [3] = test system: circadian rest/activity cycle; conditions: cited from earlier work
# rest/activity clock = conditions: cited from earlier work
# fish and tadpoles = conditions: cited from earlier work
# rats and mice = conditions: cited from earlier work
# mammals = conditions: in vivo; cited from earlier work
# humans [4] = conditions: cited from earlier work
# one-celled algae = conditions: in vivo; cited from earlier work
# [5] = in vivo; cited from earlier work
smiles,measurement,setting,value
[2H]O[2H] [deuterium oxide],predicted time for treatment regimen to take effect,[1],≤ 2 days
same,estimated Therapeutic Index (ratio of toxic dose to therapeutic dose),humans [2],about 15
same,time for chronomutagenic effect to take effect,"[3]; mice, 5% deuterium oxide, Dowse 1972",≤ 24 h
same,increase in period length of the activity rest cycle,"[3]; white mice, maximum 30% deuterium oxide dose administered, Suter and Rawson 1968",≤ 6%
same,deuterium oxide concentration at which circadian rhythm began to fluctuate,"rest/activity clock; hamsters, Richter 1977",5%
same,drinking-water deuterium oxide concentration at which rest/activity cycle was freed from entrainment by light/dark,"rest/activity clock; hamsters, Richter 1977",10%
same,slowing of circadian rhythms per 5% deuterium oxide concentration increase in total body water,"rest/activity clock; hamsters, on average, linear response, no lower threshold",about 1%
same,"deuterium oxide concentration at which circadian rhythm began to fluctuate, one hamster","rest/activity clock; one hamster, Richter 1977",1%
same,heavy water concentration survived long-term,fish and tadpoles,30%
same,body water replacement at which intoxication signs and symptoms occur,rats and mice; in vivo,over 15%
same,deuterium oxide concentration recommended as safe long term,rats and mice; in vivo,5%
same,body water deuterium oxide concentration producing coma and then death,rats and mice; rats and mice,30-35%
same,drinking water concentration of deuterium oxide safe long term,mammals,5%
same,concentration in human fluids found not to be toxic over short time periods,"humans [4]; humans, Wallace 1995",≤ 23%
same,acute replacement of total body water with no evident adverse effects,humans [4]; in vivo,15-23%
same,adverse effects,humans [4]; in vivo,no adverse effects
same,adverse effects after one liter,humans [4]; in vivo,severe vertigo with emesis
same,deuterium oxide concentration considered safe long term,humans [4]; in vivo,1%
same,dose at which positional ocular nystagmus was observed,humans [4]; in vivo,25 to 50 mL
same,duration of nystagmus,humans [4]; in vivo,up to 140 minutes
same,harmful effects in babies,humans [4]; in vivo,no observed harmful effects
same,onset of nystagmus post ingestion,humans [4]; in vivo,about 20 minutes
same,onset of vertigo after dose,humans [4]; in vivo,30 min
same,reactions to deuterium oxide,humans [4]; in vivo,short-term vertigo in two of the subjects
same,sensitivity of humans to toxic effects compared to mice,humans [4]; in vivo,roughly 5 times
same,threshold dosage for noticeable side-effects,humans [4]; in vivo,70 to 140 g
same,total body water concentration considered toxic threshold,humans [4]; in vivo,≥ 15%
same,deuterium oxide concentration survived long-term,one-celled algae,100%
same,elimination half-life,[5],up to 10 days
same,metabolites,[5],no metabolites
